Each compound was assayed against PAFR (Homo sapiens, UniProt P25105) (assay: PAF Binding Assay (PAFR binding)).
Sequence of PAFR (P25105 whole entry): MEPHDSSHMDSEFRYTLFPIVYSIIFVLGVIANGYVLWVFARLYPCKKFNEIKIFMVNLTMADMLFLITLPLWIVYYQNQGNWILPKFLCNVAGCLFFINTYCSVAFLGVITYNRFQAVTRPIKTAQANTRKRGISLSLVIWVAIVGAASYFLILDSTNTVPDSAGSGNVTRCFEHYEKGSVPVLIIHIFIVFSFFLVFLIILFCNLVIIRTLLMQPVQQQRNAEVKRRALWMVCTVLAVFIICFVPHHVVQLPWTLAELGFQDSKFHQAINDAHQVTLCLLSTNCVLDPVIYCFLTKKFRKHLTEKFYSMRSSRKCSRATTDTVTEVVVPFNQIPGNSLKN

Row | IC50 [nM] | SMILES
1 | 10 | O=S(=O)(N[C@H]1CCC[C@@H](n2cnnc2)C1)c1cc(OC(F)(F)F)cc(-c2ccccc2)c1 [Compound 3Ea, N-[(1S,3R)-3-(4H-1,2,4-triazol-4-yl)cyclohexyl]-5-(trifluoromethoxy)biphenyl-3-sulfonamide]
2 | 13 | COc1ncccc1-c1cc(OC(F)(F)F)cc(S(=O)(=O)N[C@H]2CCC[C@@H](n3cnnc3)C2)c1 [Compound 3Eb, 3-(2-methoxypyridin-3-yl)-N-[(1S,3R)-3-(4H-1,2,4-triazol-4-yl)cyclohexyl]-5-(trifluoromethoxy)benzenesulfonamide]
3 | 10 | O=S(=O)(N[C@H]1CCC[C@@H](n2cnnc2)C1)c1cc(F)cc(-c2ccccc2)c1 [Compound 3Fa, 5-fluoro-N-[(1S,3R)-3-(4H-1,2,4-triazol-4-yl)cyclohexyl]biphenyl-3-sulfonamide]
4 | 9 | COc1ncccc1-c1cc(F)cc(S(=O)(=O)N[C@H]2CCC[C@@H](n3cnnc3)C2)c1 [Compound 3Fb, 3-fluoro-5-(2-methoxypyridin-3-yl)-N-[(1S,3R)-3-(4H-1,2,4-triazol-4-yl)cyclohexyl]benzenesulfonamide]
5 | 1 | O=S(=O)(N[C@H]1CCC[C@@H](n2cnnc2)C1)c1cc(F)cc(-c2cccc3cccnc23)c1 [Compound 3Fc, 3-fluoro-5-quinolin-8-yl-N-[(1S,3R)-3-(4H-1,2,4-triazol-4-yl)cyclohexyl]benzenesulfonamide]
6 | 3.1 | O=S(=O)(N[C@H]1CCC[C@@H](n2cnnc2)C1)c1cc(-c2cccn3cnnc23)cc(C(F)(F)F)c1 [Compound 3d]
7 | 9800 | CCc1cc(-n2cnnc2C)ccc1S(=O)(=O)N[C@H]1CCC[C@@H](n2cnnc2)C1 [Compound 4b, 2-ethyl-4-(3-methyl-4H-1,2,4-triazol-4-yl)-N-[(1S,3R)-3-(4H-1,2,4-triazol-4-yl)cyclohexyl]benzenesulfonamide]
8 | 815 | CCc1cc(-n2cnnn2)ccc1S(=O)(=O)N[C@H]1CCC[C@@H](n2cnnc2)C1 [Compound 5a, 2-ethyl-4-(1H-tetrazol-1-yl)-N-[(1S,3R)-3-(4H-1,2,4-triazol-4-yl)cyclohexyl]benzenesulfonamide]
9 | 68 | CCc1cc(-n2cccn2)ccc1S(=O)(=O)N[C@H]1CCC[C@@H](n2cnnc2)C1 [Compound 6a, 2-ethyl-4-(1H-pyrazol-1-yl)-N-[(1S,3R)-3-(4H-1,2,4-triazol-4-yl)cyclohexyl]benzenesulfonamide]
10 | 25 | CCc1cc(-n2cc(C)cn2)ccc1S(=O)(=O)N[C@H]1CCC[C@@H](n2cnnc2)C1 [Compound 6b, 2-ethyl-4-(4-methyl-1H-pyrazol-1-yl)-N-[(1S,3R)-3-(4H-1,2,4-triazol-4-yl)cyclohexyl]benzenesulfonamide]
11 | 9.8 | Cc1nnc(C)n1[C@@H]1CCC[C@H](NS(=O)(=O)c2c(C(C)C)cc(C(C)C)cc2C(C)C)C1 [Compound 7d, N-[(1S,3R)-3-(3,5-dimethyl-4H-1,2,4-triazol-4-yl)cyclohexyl]-2,4,6-triisopropylbenzenesulfonamide]
12 | 5.9 | O=S(=O)(N[C@H]1CCC[C@@H](n2cnnc2)C1)c1cc(-c2ccnc3ccnn23)cc(C(F)(F)F)c1 [Compound 9c, 3-pyrazolo[1,5-a]pyrimidin-7-yl-N-[(1S,3R)-3-(4H-1,2,4-triazol-4-yl)cyclohexyl]-5-(trifluoromethyl)benzenesulfonamide]

Row | SMILES | IC50 [nM]
13 | Cc1nncn1[C@H]1C[C@@H](NS(=O)(=O)c2cc(-c3ccn[nH]3)cc(C(F)(F)F)c2)CC(F)(F)C1 [Compound 9Ae] | 18

Source: patent publication US9029377B2, “Platelet-activating factor receptor antagonists” (Merck Sharp & Dohme Corp., priority 2009, dated 2015)
